The assay has as its target T1, WT BTK protein (Homo sapiens, UniProt Q06187).
T1 construct: measured for intracellular BTK protein levels by Western blotting; endogenous in cells; host or cells: TMD-8 or RAMOS cells
The experiment in a line: BTK protein degradation assay (Western blotting), WT BTK. The conditions noted are these: concentration range accounting for 50% degradation of WT BTK protein, TMD-8 or RAMOS cells, 24 hours. Format: cell-based. The procedure: TMD-8, RAMOS, or 293T BTK MUT (C481S) cells were treated with the synthesized compounds and measured for intracellular BTK protein levels by Western blotting. The protocol of the experiment using TMD-8 cells is as follows.
TMD-8 cells were resuspended in an RPMI1640 medium (Hyclone, SH30027.01, 10% FBS (Hyclone, SV30207.02), 1% penicillin-streptomycin (Welgene, LS 202-02) and the cell suspension was seeded at a density of 1×10^6 cells/mL in an amount of 1 mL per well into 12-well plates.
The 12-well plates were treated as follows. A 10 mM stock was 1/10 diluted in series with DMSO ([…]) to form final concentrations of 10, 1, 0.1, 0.01, 0.001, and 0.0001 mM. The compounds with such concentrations were applied to cells, followed by harvesting the cells 24 hours later. For a negative control, a 1/10 dilution of DMSO in the medium (3 mL DMSO+27 mL medium) was used.
The 1-mL cell culture in each well was passed many times through a pipette and then transferred into a 1.5-mL microtube before centrifugation (500 g, 5 min, 4° C.). The supernatant was discarded and the cell pellet was washed with PBS. After centrifugation (500 g, 5 min, 4° C.) again, the supernatant was discarded and the cell pellet was taken.
A lysis buffer was prepared as follows. RIPA buffer (Biosesang, RC2038-050-00)+0.5 mM PMSF (SIGMA, P7626)+1×Protease/Phosphatase Inhibitor (Cell signaling, 5872S) was added in an amount […] per well and left for 30 minutes on ice (vortexing at 0 and 30 minutes) before sonication (5 cycles of pulse for 10 seconds and rest for 30 seconds, 70% amplification). The supernatant obtained by centrifugation (15000 g, 15 min, 4° C.) was transferred into a new microtube. Cells in each well of 96-well plates were 1/2 diluted with the RIPA buffer and incubated at 37° C. for 30 minutes with […] of a 50:1 mixture of BCA reagents A and B in BCA Protein Assay Kit (iNtRON, 21071). After being cooled for 10 minutes, the 96-well plates were measured for absorbance at 562 nm on the BioTek, SYNERGY H1 microplate reader. Samples were prepared by protein quantification based on the absorbance measurements and then boiled at 70° C. for 10 minutes. The sample buffer used in the case was prepared by mixing a NuPAGE or a Bolt 4× sample buffer (Invitrogen) and its 10× sample reducing agent depending on the gel to be used, and protein dilution was made in a RIPI buffer.
The samples were loaded in the same amount into a NuPAGE or Bolt Bis-tris 4-12% gradient gel and allowed to run therein (200 V, 35 minutes). The separated proteins were transferred onto a […] NC membrane, using Trans-blot Turbo (BIO-RAD) (1.3 A constant, 25V limit, 15 minutes). The membrane was blocked at room temperature for 1 hour with skim milk or Intercept Blocking Buffer (LI-COR, 927-60001):0.1% TBST=1:1. The membrane was incubated with Anti BTK Rabbit (1:1,000 in 5% skim milk/0.2% TBST, size: 77 kDa, Cell signaling Technology) at 4° C. overnight O/N or at room temperature for 2 hours and with Anti GAPDH Rabbit (1:10,000 in 5% BSA/0.2% TBST, size: 36 kDa, GENETEX) and Anti β-actin mouse (1:10,000 in 5% BSA/0.2% TBST, RT, size: 43 kDa, GENETEX) at room temperature for 1 or 3 hours. Then, the membrane was washed three times with 0.5% TBST for 5 minutes each time before incubation with the second antibody Anti-Rabbit IgG (1:5,000 in 5% Skim milk/TBST, CST), IRDye® 800CW Goat anti-Rabbit IgG Secondary Antibody (1:10,000 in 5% skim/TBST, RT 45 min), or IRDye® 680RD Goat anti-Mouse IgG Secondary Antibody (1:10,000 in 5% skim/TBST, RT 45 min) for 45 minutes at room temperature in a rocker. The membrane was washed five times with 0.5% TBST for 5 minutes in each time, followed by detection with LI-COR, Odyssey. In this regard, the detection proceeded, as it was, for house-keeping genes while using SuperSignal West Pico PLUS Chemiluminescent Substrate or SuperSignal West femto Maximum Sensitivity Substrate for BTK detection. […]
T1 sequence (Q06187 whole entry): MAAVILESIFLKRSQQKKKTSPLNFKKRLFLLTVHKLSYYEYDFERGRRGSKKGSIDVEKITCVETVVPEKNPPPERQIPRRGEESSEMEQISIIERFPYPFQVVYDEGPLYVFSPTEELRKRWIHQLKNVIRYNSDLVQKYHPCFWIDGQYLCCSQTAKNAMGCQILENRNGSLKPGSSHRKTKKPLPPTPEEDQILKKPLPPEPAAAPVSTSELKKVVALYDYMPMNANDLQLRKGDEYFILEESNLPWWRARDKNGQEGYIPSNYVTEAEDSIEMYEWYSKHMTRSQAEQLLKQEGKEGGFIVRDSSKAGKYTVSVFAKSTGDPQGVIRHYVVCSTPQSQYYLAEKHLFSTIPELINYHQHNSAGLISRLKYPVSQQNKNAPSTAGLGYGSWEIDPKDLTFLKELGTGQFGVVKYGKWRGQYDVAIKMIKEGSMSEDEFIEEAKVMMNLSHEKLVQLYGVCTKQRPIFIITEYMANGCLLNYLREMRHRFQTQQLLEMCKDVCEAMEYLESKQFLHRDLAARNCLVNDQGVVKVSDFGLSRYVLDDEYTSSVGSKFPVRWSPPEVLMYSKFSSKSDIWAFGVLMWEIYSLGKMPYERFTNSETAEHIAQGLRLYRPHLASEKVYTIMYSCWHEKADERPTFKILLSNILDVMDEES
In the case of `Cc1cccc(C)c1Nc1nn(C)c2nc(Nc3ccc4c(c3)CN(C(=O)CNc3ccc5c(c3)CN(C3CCC(=O)NC3=O)C5=O)CC4)ncc12` (centres unmarked) [Compound 81, 3-(5-((2-(7-((3-((2,6-Dimethylphenyl)amino)-1-methyl-1H-pyrazolo[3,4-d]pyrimidin-6-yl)amino)-3,4-dihydroisoquinolin-2 (1H)-yl)-2-oxoethyl)amino)-1-oxoisoindolin-2-yl)piperidin-2,6-one], the DC50 was in the range of 0.1 to 10 nM.
For `Cn1nc(Nc2c(Cl)cccc2Cl)c2cnc(Nc3ccc4c(c3)CN(CC3CCN(c5ccc6c(c5)C(=O)N(C5CCC(=O)NC5=O)C6=O)CC3)CC4)nc21` (centres unmarked) [Compound 82, 5-(4-((7-((3-((2,6-Dichlorophenyl)amino)-1-methyl-1H-pyrazolo[3,4-d]pyrimidin-6-yl)amino)-3,4-dihydroisoquinolin-2 (1H)-yl)methyl)piperidin-1-yl)-2-(2,6-dioxopiperidin-3-yl)isoindoline-1,3-dione] the value was 0.1 to 10 nM; for `Cc1ccc(Nc2nn(C)c3nc(Nc4ccc5c(c4)CN(CC4CCN(c6ccc7c(c6)C(=O)N(C6CCC(=O)NC6=O)C7=O)CC4)CC5)ncc23)c(C)c1` (centres unmarked) [Compound 83, 5-(4-((7-((3-((2,4-Dimethylphenyl)amino)-1-methyl-1H-pyrazolo[3,4-d]pyrimidin-6-yl)amino)-3,4-dihydroisoquinolin-2 (1H)-yl)methyl)piperidin-1-yl)-2-(2,6-dioxopiperidin-3-yl)isoindoline-1,3-dione], 10 to 1000 nM.
The figure for `Cc1ccccc1Nc1nn(C)c2nc(Nc3ccc4c(c3)CN(CC3CCN(c5ccc6c(c5)C(=O)N(C5CCC(=O)NC5=O)C6=O)CC3)CC4)ncc12` (centres unmarked) [Compound 84, 2-(2,6-Dioxopiperidin-3-yl)-5-(4-((7-((1-methyl-3-(o-tolylamino)-1H-pyrazolo[3,4-d]pyrimidin-6-yl)amino)-3,4-dihydroisoquinolin-2 (1H)-yl)methyl)piperidin-1-yl)isoindoline-1,3-dione] is 0.1 to 10 nM; for `Cc1cccc(C)c1Nc1nn(C(C)C)c2nc(Nc3ccc4c(c3)CN(CC3CCN(c5ccc6c(c5)C(=O)N(C5CCC(=O)NC5=O)C6=O)CC3)CC4)ncc12` (centres unmarked) [Compound 86, 5-(4-((7-((3-((2,6-Dimethylphenyl)amino)-1-isopropyl-1H-pyrazolo[3,4-d]pyrimidin-6-yl)amino)-3,4-dihydroisoquinolin-2 (1H)-yl)methyl)piperidin-1-yl)-2-(2,6-dioxopiperidin-3-yl)isoindoline-1,3-dione] it is 0.1 to 10 nM.
The figure for `Cc1cccc(C)c1Nc1nn(C)c2nc(Nc3ccc4c(c3)CN(CC3CCN(CC(=O)Nc5ccc6c(c5)C(=O)N(C5CCC(=O)NC5=O)C6=O)CC3)CC4)ncc12` (centres unmarked) [Compound 90, 2-(4-((7-((3-((2,6-Dimethylphenyl)amino)-1-methyl-1H-pyrazolo[3,4-d]pyrimidin-6-yl)amino)-3,4-dihydroisoquinolin-2 (1H)-yl)methyl)piperidin-1-yl)-N-(2-(2,6-dioxopiperidin-3-yl)-1,3-dioxoisoindolin-5-yl)acetamide] is 10 to 1000 nM; for `Cc1cccc(C)c1Nc1nn(C)c2nc(Nc3ccc4c(c3)CN(CC3CCN(CC(=O)Nc5ccc6c(c5)CN(C5CCC(=O)NC5=O)C6=O)CC3)CC4)ncc12` (centres unmarked) [Compound 91, 2-(4-((7-((3-((2,6-Dimethylphenyl)amino)-1-methyl-1H-pyrazolo[3,4-d]pyrimidin-6-yl)amino)-3,4-dihydroisoquinolin-2 (1H)-yl)methyl)piperidin-1-yl)-N-(2-(2,6-dioxopiperidin-3-yl)-1-oxoisoindolin-5-yl)acetamide] it is 0.1 to 10 nM.
On to `Cc1cccc(C)c1Nc1nn(C)c2nc(Nc3ccc4c(c3)CN(CC3CCN(C(=O)Nc5ccc6c(c5)CN(C5CCC(=O)NC5=O)C6=O)CC3)CC4)ncc12` (centres unmarked) [Compound 92, 4-((7-((3-((2,6-Dimethylphenyl)amino)-1-methyl-1H-pyrazolo[3,4-d]pyrimidin-6-yl)amino)-3,4-dihydroisoquinolin-2 (1H)-yl)methyl)-N-(2-(2,6-dioxopiperidin-3-yl)-1-oxoisoindolin-5-yl)piperidine-1-carboxamide], for which the DC50 lay in the range of 0.1 to 10 nM.
For `Cc1cccc(C)c1Nc1nn(C)c2nc(Nc3ccc4c(c3)CN(C(=O)CN3CCN(c5ccc6c(c5)C(=O)N(C5CCC(=O)NC5=O)C6=O)CC3)CC4)ncc12` (centres unmarked) [Compound 93, 5-(4-(2-(7-((3-((2,6-dimethylphenyl)amino)-1-methyl-1H-pyrazolo [3,4-d]pyrimidin-6-yl)amino)-3,4-dihydroisoquinolin-2 (1H)-yl)-2-oxoethyl)piperazin-1-yl)-2-(2,6-dioxopiperidin-3-yl)isoindoline-1,3-dione] the value was 10 to 1000 nM.
As for `Cc1cccc(C)c1Nc1nn(C)c2nc(Nc3ccc4c(c3)CN(CC(=O)NCc3ccc5c(c3)CN(C3CCC(=O)NC3=O)C5=O)CC4)ncc12` (centres unmarked) [Compound 94, 2-(7-((3-((2,6-dimethylphenyl)amino)-1-methyl-1H-pyrazolo[3,4-d]pyrimidin-6-yl)amino)-3,4-dihydroisoquinolin-2 (1H)-yl)-N-((2-(2,6-dioxopiperidin-3-yl)-1-oxoisoindolin-5-yl)methyl)acetamide], the DC50 was in the range of 10 to 1000 nM.
Take `Cc1cccc(C)c1Nc1nn(C)c2nc(Nc3ccc4c(c3)CN(CC(=O)N3CCN(c5ccc6c(c5)C(=O)N(C5CCC(=O)NC5=O)C6=O)CC3)CC4)ncc12` (centres unmarked) [Compound 95, 5-(4-(2-(7-((3-((2,6-dimethylphenyl)amino)-1-methyl-1H-pyrazolo[3,4-d]pyrimidin-6-yl)amino)-3,4-dihydroisoquinolin-2 (1H)-yl)acetyl)piperazin-1-yl)-2-(2,6-dioxopiperidin-3-yl)isoindoline-1,3-dione]: the DC50 lay within 10 to 1000 nM.
The figure for `Cc1cccc(C)c1Nc1nn(C)c2nc(Nc3ccc4c(c3)CN(C(=O)Nc3ccc5c(c3)CN(C3CCC(=O)NC3=O)C5=O)CC4)ncc12` (centres unmarked) [Compound 96, 7-((3-((2,6-dimethylphenyl)amino)-1-methyl-1H-pyrazolo[3,4-d]pyrimidin-6-yl)amino)-N-(2-(2,6-dioxopiperidin-3-yl)-1-oxoisoindolin-5-yl)-3,4-dihydroisoquinoline-2 (1H)-carboxamide] is 0.1 to 10 nM; for `Cc1cccc(C)c1Nc1nn(C)c2nc(Nc3ccc4c(c3)CN(CC(=O)NC3CCN(c5ccc6c(c5)C(=O)N(C5CCC(=O)NC5=O)C6=O)CC3)CC4)ncc12` (centres unmarked) [Compound 97, 2-(7-((3-((2,6-dimethylphenyl)amino)-1-methyl-1H-pyrazolo[3,4-d]pyrimidin-6-yl)amino)-3,4-dihydroisoquinolin-2 (1H)-yl)-N-(1-(2-(2,6-dioxopiperidin-3-yl)-1,3-dioxoisoindolin-5-yl)piperidin-4-yl)acetamide] it is 0.1 to 10 nM; for `Cc1cccc(C)c1Nc1nn(C)c2nc(Nc3ccc4c(c3)CN(C(=O)CNCc3ccc5c(c3)CN(C3CCC(=O)NC3=O)C5=O)CC4)ncc12` (centres unmarked) [Compound 98, 3-(5-(((2-(7-((3-((2,6-Dimethylphenyl)amino)-1-methyl-1H-pyrazolo[3,4-d]pyrimidin-6-yl)amino)-3,4-dihydroisoquinolin-2 (1H)-yl)-2-oxoethyl)amino)methyl)-1-oxoisoindolin-2-yl)piperidin-2,6-one] it is 0.1 to 10 nM.

The DC50 is the midpoint of the concentration-degradation curve.

(Values after patent US12161722B2, “Bifunctional heterocyclic compound having BTK degradation function via ubiquitin proteasome pathway, and use thereof” (KOREA RESEARCH INSTITUTE OF CHEMICAL TECHNOLOGY, priority 2021, dated 2024).)
